From patent US20010011137A1, “Use of triphenylmethyl-1,2,3-triazoles” (priority 1996, published 2001)

- melting point: 162 °C
Structure (SMILES): Clc1ccccc1C(c1ccccc1)(c1ccccc1)n1ccnn1 [Example 10, 1-(2-chlorotrityl)-1H-1,2,3-triazole]
